Experimental data taken from patent publication US10953012B2, “Heterocyclic compounds for the inhibition of pask” (BioEnergenix LLC, priority 2011, dated 2021).

Assays:
hPASK (full length) = hPASK (full length) (Homo sapiens (Human), UniProt Q96RG2); assay: PAS Kinase Luminescence Assay (Kinase-Glo), full length; assay type: biochemical
Description: (§1) PAS Kinase Luminescence Assay
(§2) One assay for purified hPASK activity utilizes the Kinase-Glo Luminescent Kinase Assay (Promega), which quantifies the amount of ATP remaining in solution following kinase reaction. The assay is carried out in a 96-well plate format and is performed by adding a volume of Kinase-Glo Reagent (Promega, catalog #V3771) equal to the volume of solution in the well of a completed kinase reaction. Kinase-Glo reagent contains Luciferase and its substrate. After addition to a kinase reaction it allows to measure luminescence. The amount of ATP left in solution at the time of Kinase-Glo Plus addition is directly proportional to the luminescence that is measured in each well, and inversely correlated with kinase activity.
(§3) Purified hPASK from insect cells (0.02 μg) is added to a 50 μL reaction mix containing 40 mM HEPES (pH 7.0), 100 mM KCl, 5 mM MgCl2, 1 mM DTT and 1 μg of MBP protein. Inhibitory compounds are then added and the mixture is incubated for 10 min at 25° C. before adding 5 μL of ATP (at desired concentration). The reaction is allowed to proceed at 25° C. for 1 hour before adding 50 μL of Kinase-Glo reagent. The luminescence is measured as soon as 10 minutes after Kinase-Glo reagent is added.
(§4) Results are shown below in Table 1, where NT means not tested.

hPASK (kinase domain) = hPASK (kinase domain) (Homo sapiens (Human), UniProt Q96RG2); assay: PAS Kinase Luminescence Assay (Kinase-Glo), kinase domain; assay type: biochemical
Description: as §1, §2, §3, §4

CK2a2 = CK2a2 (Homo sapiens (Human), UniProt P19784); assay: Biochemical Assay for CK2 Activity; settings: 33P-ATP radiochemical assay; read-out: IC50 CK2 a2
In short: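 GST-tagged full-length human CK2a2 from insect cells (1.2 nM) with 20 μM RRRDDDSDDD peptide, in pH 7.5 HEPES buffer with MgCl2, DTT and 1% DMSO. Reactions started with ³³P-ATP were run for 120 min at room temperature. Substrate phosphorylation was measured by P81 phosphocellulose filter binding and scintillation counting.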

PASK = PASK (UniProt #Q96RG2; residues 879-1323) (Homo sapiens (Human), UniProt Q96RG2); assay: PASK ATP Radiochemical Assay; assay type: biochemical; settings: 33P-ATP radiochemical assay; read-out: IC50 Kinase Domain
In short: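 Radiometric kinase assay: GST-tagged PASK (5 nM final) from insect cells with Myelin Basic Protein (20 μM) in HEPES pH 7.5 buffer, 1% DMSO; reaction started with ^33P-ATP, 120 min at room temperature. Substrate phosphorylation captured on P81 paper and read by scintillation counting.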

CK2a2, sequence (P19784 whole entry): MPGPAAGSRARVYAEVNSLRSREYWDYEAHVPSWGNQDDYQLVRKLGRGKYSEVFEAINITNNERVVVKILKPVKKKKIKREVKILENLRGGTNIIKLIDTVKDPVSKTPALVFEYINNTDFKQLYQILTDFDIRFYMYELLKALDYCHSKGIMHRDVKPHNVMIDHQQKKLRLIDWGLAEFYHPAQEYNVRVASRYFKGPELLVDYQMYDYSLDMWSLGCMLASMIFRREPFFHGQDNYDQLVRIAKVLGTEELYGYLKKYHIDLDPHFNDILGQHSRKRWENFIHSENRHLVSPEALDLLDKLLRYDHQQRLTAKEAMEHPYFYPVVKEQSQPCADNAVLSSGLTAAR
hPASK (kinase domain), sequence (Q96RG2 999-1251): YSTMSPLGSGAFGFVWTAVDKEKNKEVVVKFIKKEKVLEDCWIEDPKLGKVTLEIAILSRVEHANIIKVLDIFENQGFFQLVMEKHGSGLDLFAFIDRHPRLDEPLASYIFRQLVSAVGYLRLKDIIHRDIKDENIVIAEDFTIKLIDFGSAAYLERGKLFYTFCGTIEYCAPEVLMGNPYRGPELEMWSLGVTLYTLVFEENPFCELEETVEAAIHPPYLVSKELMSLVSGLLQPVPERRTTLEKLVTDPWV
hPASK (full length), sequence (Q96RG2 whole entry): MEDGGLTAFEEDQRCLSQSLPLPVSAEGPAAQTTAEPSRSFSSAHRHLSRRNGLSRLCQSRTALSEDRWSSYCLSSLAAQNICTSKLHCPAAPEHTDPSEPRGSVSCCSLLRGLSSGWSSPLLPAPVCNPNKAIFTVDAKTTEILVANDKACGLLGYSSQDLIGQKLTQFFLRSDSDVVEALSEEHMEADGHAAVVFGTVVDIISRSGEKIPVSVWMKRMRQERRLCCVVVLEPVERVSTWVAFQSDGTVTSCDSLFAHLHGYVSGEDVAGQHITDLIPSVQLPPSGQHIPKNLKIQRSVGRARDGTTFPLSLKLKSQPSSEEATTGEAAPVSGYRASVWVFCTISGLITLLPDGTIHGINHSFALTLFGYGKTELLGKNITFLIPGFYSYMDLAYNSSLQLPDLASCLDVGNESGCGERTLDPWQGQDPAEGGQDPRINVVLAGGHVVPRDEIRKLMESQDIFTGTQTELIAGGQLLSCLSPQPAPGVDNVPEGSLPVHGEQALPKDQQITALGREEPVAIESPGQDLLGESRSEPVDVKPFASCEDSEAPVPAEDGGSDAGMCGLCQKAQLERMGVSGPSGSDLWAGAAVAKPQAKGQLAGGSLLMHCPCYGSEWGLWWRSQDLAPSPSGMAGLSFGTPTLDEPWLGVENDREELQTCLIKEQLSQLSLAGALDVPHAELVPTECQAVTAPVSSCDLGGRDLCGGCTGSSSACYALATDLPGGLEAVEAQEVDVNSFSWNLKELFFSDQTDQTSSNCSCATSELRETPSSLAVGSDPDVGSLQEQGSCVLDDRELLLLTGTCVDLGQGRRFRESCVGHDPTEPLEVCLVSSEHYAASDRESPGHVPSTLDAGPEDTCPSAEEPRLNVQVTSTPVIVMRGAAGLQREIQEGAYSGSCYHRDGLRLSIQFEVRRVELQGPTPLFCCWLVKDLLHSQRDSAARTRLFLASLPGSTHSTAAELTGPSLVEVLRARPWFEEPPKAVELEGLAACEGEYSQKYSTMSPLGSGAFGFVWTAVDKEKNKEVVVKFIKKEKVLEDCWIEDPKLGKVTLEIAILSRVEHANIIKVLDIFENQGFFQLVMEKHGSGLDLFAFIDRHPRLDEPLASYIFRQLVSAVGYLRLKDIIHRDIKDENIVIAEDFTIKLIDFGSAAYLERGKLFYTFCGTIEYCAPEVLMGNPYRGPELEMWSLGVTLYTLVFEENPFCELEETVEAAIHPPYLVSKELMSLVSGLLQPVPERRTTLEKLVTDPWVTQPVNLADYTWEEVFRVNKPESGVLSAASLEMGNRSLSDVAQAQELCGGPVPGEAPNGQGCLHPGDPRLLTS
PASK, sequence (Q96RG2 879-1323): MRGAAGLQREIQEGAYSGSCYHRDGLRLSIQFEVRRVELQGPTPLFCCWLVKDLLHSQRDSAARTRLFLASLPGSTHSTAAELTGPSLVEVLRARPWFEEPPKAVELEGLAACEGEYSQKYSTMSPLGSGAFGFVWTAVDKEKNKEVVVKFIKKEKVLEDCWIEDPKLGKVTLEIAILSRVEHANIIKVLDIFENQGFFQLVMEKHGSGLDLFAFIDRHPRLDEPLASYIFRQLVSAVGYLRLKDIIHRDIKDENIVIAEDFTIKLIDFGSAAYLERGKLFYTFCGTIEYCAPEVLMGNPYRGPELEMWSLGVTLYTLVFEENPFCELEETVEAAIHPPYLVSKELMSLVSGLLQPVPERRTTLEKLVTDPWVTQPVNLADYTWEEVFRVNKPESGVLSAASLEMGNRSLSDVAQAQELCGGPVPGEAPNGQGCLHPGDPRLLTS

Row | Structure (SMILES) | IC50 (hPASK (full length)) | IC50 (hPASK (kinase domain)) | IC50 (CK2a2) | IC50 (PASK)
1 | Cc1nn2c(=O)cc(-c3ccc([N+](=O)[O-])cc3)[nH]c2c1-c1ccc(Cl)cc1 [Example 1, 3-(4-Chloro-phenyl)-2-methyl-5-(4-nitro-phenyl)-4H-pyrazolo[1,5-a]pyrimidin-7-one] | ≤ 10 µM | ≤ 10 µM |  | 
2 | Cc1cc(=O)n2nc(-c3ccc(Cl)cc3)cc2[nH]1 [Example 2, 2-(4-Chloro-phenyl)-5-methyl-4H-pyrazolo[1,5-a]pyrimidin-7-one] | ≤ 10 µM | ≥ 10 µM |  | 
3 | Cc1[nH]c2c(-c3ccc(Cl)cc3)cnn2c(=O)c1Cc1ccccc1 [Example 3, 6-Benzyl-3-(4-chloro-phenyl)-5-methyl-4H-pyrazolo[1,5-a]pyrimidin-7-one] | ≤ 10 µM | ≤ 10 µM |  | 
4 | COc1ccc(-c2c(Cc3ccccc3)nn3c(=O)cc(-c4ccccc4)[nH]c23)cc1 [Example 5, 2-Benzyl-3-(4-methoxy-phenyl)-5-phenyl-4H-pyrazolo[1,5-a]pyrimidin-7-one] | ≥ 10 µM | ≤ 10 µM |  | 
5 | COc1ccc(-c2c(C)nn3c(=O)cc(-c4ccccc4)[nH]c23)cc1 [Example 6, 3-(4-Methoxy-phenyl)-2-methyl-5-phenyl-4H-pyrazolo[1,5-a]pyrimidin-7-one] | ≥ 10 µM | ≤ 10 µM |  | 
6 | O=c1cc(-c2ccccc2)[nH]c2c(-c3ccccc3)c(Cc3ccccc3)nn12 [Example 7, 2-Benzyl-3,5-diphenyl-4H-pyrazolo[1,5-a]pyrimidin-7-one] | ≥ 10 µM | ≤ 10 µM |  | 
7 | Cc1nn2c(=O)cc(-c3ccccc3)[nH]c2c1-c1ccc(Cl)cc1 [Example 8, 3-(4-Chloro-phenyl)-2-methyl-5-phenyl-4H-pyrazolo[1,5-a]pyrimidin-7-one] | ≤ 10 µM | ≤ 10 µM |  | 
8 | O=c1cc(-c2ccc([N+](=O)[O-])cc2)[nH]c2c(-c3ccc(Cl)cc3)c(Cc3ccccc3)nn12 [Example 9, 2-Benzyl-3-(4-chloro-phenyl)-5-(4-nitro-phenyl)-4H-pyrazolo[1,5-a]pyrimidin-7-one] | ≤ 10 µM | ≤ 10 µM |  | 
9 | O=c1cc(-c2ccccc2)[nH]c2c(-c3ccc(Cl)cc3)c(Cc3ccccc3)nn12 [Example 10, 2-Benzyl-3-(4-chloro-phenyl)-5-phenyl-4H-pyrazolo[1,5-a]pyrimidin-7-one] | ≥ 10 µM | ≥ 10 µM |  | 
10 | O=c1cc(-c2ccccc2)[nH]c2c(-c3cccc4ccccc34)c(Cc3ccccc3)nn12 [Example 11, 2-Benzyl-3-naphthalen-1-yl-5-phenyl-4H-pyrazolo[1,5-a]pyrimidin-7-one] | ≥ 10 µM | ≥ 10 µM |  | 
11 | COc1ccc(Cc2nn3c(=O)cc(-c4ccccc4)[nH]c3c2-c2ccccc2)cc1 [Example 12, 2-(4-Methoxy-benzyl)-3,5-diphenyl-4H-pyrazolo[1,5-a]pyrimidin-7-one] | ≥ 10 µM | ≥ 10 µM |  | 
12 | Cc1nn2c(=O)c(C#N)c(-c3ccccc3)[nH]c2c1-c1ccccc1 [Example 13, 2-Methyl-7-oxo-3,5-diphenyl-4,7-dihydro-pyrazolo[1,5-a]pyrimidine-6-carbonitrile] | ≥ 10 µM | ≤ 10 µM |  | 
13 | COc1ccc(-c2cc(=O)n3nc(C)c(-c4ccccc4)c3[nH]2)cc1 [Example 14, 5-(4-Methoxy-phenyl)-2-methyl-3-phenyl-4H-pyrazolo[1,5-a]pyrimidin-7-one] | ≤ 10 µM | ≤ 10 µM |  | 
14 | Cc1nn2c(=O)cc(-c3ccccc3)[nH]c2c1-c1ccc(F)cc1 [Example 15, 3-(4-Fluoro-phenyl)-2-methyl-5-phenyl-4H-pyrazolo[1,5-a]pyrimidin-7-one] | ≥ 10 µM | ≥ 10 µM |  | 
15 | COc1ccccc1-c1cc(=O)n2nc(C)c(-c3ccccc3)c2[nH]1 [Example 16, 5-(2-Methoxy-phenyl)-2-methyl-3-phenyl-4H-pyrazolo[1,5-a]pyrimidin-7-one] | ≤ 10 µM | ≤ 10 µM |  | 
16 | Cc1nn2c(=O)cc(-c3ccc(Cl)cc3)[nH]c2c1-c1ccccc1 [Example 17, 5-(4-Chloro-phenyl)-2-methyl-3-phenyl-4H-pyrazolo[1,5-a]pyrimidin-7-one] | ≤ 10 µM | ≤ 10 µM |  | 
17 | CCCc1cc(=O)n2nc(Cc3ccccc3)c(-c3ccc(Cl)cc3)c2[nH]1 [Example 18, 2-Benzyl-3-(4-chloro-phenyl)-5-propyl-4H-pyrazolo[1,5-a]pyrimidin-7-one] | ≥ 10 µM | ≥ 10 µM |  | 
18 | COCc1cc(=O)n2nc(Cc3ccccc3)c(-c3ccc(OC)cc3)c2[nH]1 [Example 19, 2-Benzyl-5-methoxymethyl-3-(4-methoxy-phenyl)-4H-pyrazolo[1,5-a]pyrimidin-7-one] | ≥ 10 µM | ≥ 10 µM |  | 
19 | O=c1cc(Cc2ccccc2)[nH]c2c(-c3ccccc3)c(Cc3ccccc3)nn12 [Example 21, 2,5-Dibenzyl-3-phenyl-4H-pyrazolo[1,5-a]pyrimidin-7-one] | ≥ 10 µM | ≥ 10 µM |  | 

Further lines, results first:

Row | IC50 (hPASK (full length)) | IC50 (hPASK (kinase domain)) | IC50 (CK2a2) | IC50 (PASK) | Structure (SMILES)
20 | ≥ 10 µM | ≥ 10 µM |  |  | CCCc1cc(=O)n2nc(C)c(-c3ccc(Cl)cc3)c2[nH]1 [Example 22, 3-(4-Chloro-phenyl)-2-methyl-5-propyl-4H-pyrazolo[1,5-a]pyrimidin-7-one]
21 | ≥ 10 µM | ≥ 10 µM |  |  | COc1ccc(-c2c(C)nn3c(=O)cc(Cc4ccccc4)[nH]c23)cc1 [Example 23, 5-Benzyl-3-(4-methoxy-phenyl)-2-methyl-4H-pyrazolo[1,5-a]pyrimidin-7-one]
22 |  | ≤ 10 µM | ≤ 10 µM |  | Cc1nn2c(=O)cc(-c3ccc4c(c3)OCO4)[nH]c2c1-c1ccccc1 [Example 43, 5-(Benzo[d][1,3]dioxol-5-yl)-2-methyl-3-phenylpyrazolo[1,5-a]pyrimidin-7(4H)-one]
23 |  | ≤ 10 µM | ≤ 10 µM |  | O=c1cc(-c2ccc3c(c2)OCCO3)[nH]c2c(-c3ccccn3)cnn12 [Example 44, 5-(2,3-Dihydrobenzo[b][1,4]dioxin-6-yl)-3-(pyridin-2-yl)pyrazolo[1,5-a]pyrimidin-7(4H)-one]
24 |  | ≤ 10 µM | ≤ 10 µM |  | O=c1cc(-c2ccc3c(c2)OCCO3)[nH]c2c(-c3cccnc3)cnn12 [Example 45, 5-(2,3-Dihydrobenzo[b][1,4]dioxin-6-yl)-3-(pyridin-3-yl)pyrazolo[1,5-a]pyrimidin-7(4H)-one]
25 |  | ≤ 10 µM | ≤ 10 µM |  | Cc1nn2c(=O)cc(-c3ccc4c(c3)OCO4)[nH]c2c1-c1ccccn1 [Example 48, 5-(Benzo[d][1,3]dioxol-5-yl)-2-methyl-3-(pyridin-2-yl)pyrazolo[1,5-a]pyrimidin-7(4H)-one]
26 |  | ≤ 10 µM | ≤ 10 µM |  | Cc1nn2c(=O)cc(-c3ccc4c(c3)OCCO4)[nH]c2c1-c1ccccn1 [Example 50, 5-(2,3-Dihydrobenzo[b][1,4]dioxin-6-yl)-2-methyl-3-(pyridin-2-yl)pyrazolo[1,5-a]pyrimidin-7(4H)-one]
27 |  | ≤ 10 µM | ≤ 10 µM |  | Cc1nn2c(=O)cc(-c3ccc4c(c3)OCCO4)[nH]c2c1-c1cccnc1 [Example 51, 5-(2,3-Dihydrobenzo[b][1,4]dioxin-6-yl)-2-methyl-3-(pyridin-3-yl)pyrazolo[1,5-a]pyrimidin-7(4H)-one]
28 |  | ≤ 10 µM | ≥ 10 µM | ≤ 10 µM | Cc1nn2c(=O)cc(-c3ccc4cc[nH]c4c3)[nH]c2c1Cc1ccccc1 [Example 74, 3-Benzyl-5-(1H-indol-6-yl)-2-methylpyrazolo[1,5-a]pyrimidin-7(4H)-one]
